Converted amounts (≈) assume the structure as drawn.
Experiment: Solubility in o-dichlorobenzene by UV-vis absorbance at 360 nm
Settings: for solubility in o-dichlorobenzene: room temperature (about 22° C.)

solubility in common organic solvents (in words, compared to the fullerenes according to the invention)	SMILES	solubility in o-dichlorobenzene
lower solubility	c1ccc2c(c1)CC13c4c5c6c7c8c9c(c%10c%11c1c1c%12c4c4c%13c5c5c7c7c8c8c%14c9c%10c9c%10c%11c1c1c%11c%12c4c4c%12c%13c5c5c7c7c8c8c%14c9c9c%10c1c1c%11c4c4c%12c5c7c5c8c9c1c45)C63C2 (centres unmarked) [oQDM-C60, reference compound]	5.8 mg/mL (≈ 7.03 mM)
	CCCCC1c2ccccc2C(CCCC)C23c4c5c6c7c8c9c(c%10c%11c2c2c4c4c%12c5c5c6c6c8c8c%13c9c9c%10c%10c%11c%11c2c2c4c4c%12c%12c5c5c6c8c6c8c%13c9c9c%10c%10c%11c2c2c4c4c%12c5c6c5c8c9c%10c2c45)C713 (centres unmarked) [Fullerene 3]	9.3 mg/mL (≈ 9.92 mM)
	CCCCCCC1c2ccccc2C(CCCCCC)C23c4c5c6c7c8c9c(c%10c%11c2c2c4c4c%12c5c5c6c6c8c8c%13c9c9c%10c%10c%11c%11c2c2c4c4c%12c%12c5c5c6c8c6c8c%13c9c9c%10c%10c%11c2c2c4c4c%12c5c6c5c8c9c%10c2c45)C713 (centres unmarked) [Fullerene 4]	45 mg/mL (≈ 45.3 mM)
	CCCCCCCC1c2ccccc2C(CCCCCCC)C23c4c5c6c7c8c9c(c%10c%11c2c2c4c4c%12c5c5c6c6c8c8c%13c9c9c%10c%10c%11c%11c2c2c4c4c%12c%12c5c5c6c8c6c8c%13c9c9c%10c%10c%11c2c2c4c4c%12c5c6c5c8c9c%10c2c45)C713 (centres unmarked) [Fullerene 5]	20 mg/mL (≈ 19.6 mM)
